± gives the uncertainty stated by the source.
Experiment: xn = mol fraction of the nth substance listed

COCCOCCO + CCOC(C)(C)C
viscosity [mPa·s], 101 kPa
Settings	293.15 K	298.15 K	303.15 K
x2 = 0.0501	3.519 ± 0.051	3.231 ± 0.047	2.865 ± 0.042
x2 = 0.1	3.158 ± 0.045	2.906 ± 0.042	2.589 ± 0.037
x2 = 0.1459	2.847 ± 0.04	2.627 ± 0.037	2.351 ± 0.034
x2 = 0.1998	2.518 ± 0.035	2.328 ± 0.033	2.097 ± 0.029
x2 = 0.2556	2.218 ± 0.03	2.06 ± 0.028	1.862 ± 0.026
x2 = 0.3031	1.991 ± 0.027	1.855 ± 0.025	1.683 ± 0.023
x2 = 0.3521	1.784 ± 0.024	1.669 ± 0.022	1.52 ± 0.021
x2 = 0.4004	1.605 ± 0.021	1.506 ± 0.02	1.377 ± 0.018
x2 = 0.4511	1.438 ± 0.019	1.355 ± 0.018	1.244 ± 0.017
x2 = 0.4998	1.299 ± 0.017	1.227 ± 0.016	1.13 ± 0.015
x2 = 0.5628	1.142 ± 0.015	1.082 ± 0.014	1.001 ± 0.013
x2 = 0.5997	1.062 ± 0.014	1.007 ± 0.013	0.934 ± 0.012
x2 = 0.6621	0.942 ± 0.012	0.894 ± 0.012	0.833 ± 0.011
x2 = 0.6997	0.879 ± 0.011	0.834 ± 0.011	0.779 ± 0.01
x2 = 0.7411	0.816 ± 0.011	0.773 ± 0.01	0.725 ± 0.01
x2 = 0.7995	0.736 ± 0.01	0.697 ± 0.009	0.657 ± 0.009
x2 = 0.8401	0.687 ± 0.009	0.651 ± 0.009	0.616 ± 0.008
x2 = 0.8998	0.623 ± 0.008	0.591 ± 0.008	0.56 ± 0.008
x2 = 0.9498	0.575 ± 0.008	0.545 ± 0.007	0.518 ± 0.007

OCCN(CCO)CCO + CN1CCCC1=O
viscosity [mPa·s], 101 kPa
Settings	x2 = 0.0728	x2 = 0.1508	x2 = 0.2354	x2 = 0.3199	x2 = 0.4141	x2 = 0.5135	x2 = 0.6225	x2 = 0.7384	x2 = 0.863
293.15 K	572.9 ± 37	337.4 ± 20	162.4 ± 9	84.29 ± 4.5	43.36 ± 2.2	22.93 ± 1.2	11.2 ± 0.58	6.152 ± 0.32	3.354 ± 0.17
303.15 K	255.2 ± 15	159.4 ± 9	84.21 ± 4.5	47.61 ± 2.5	27.51 ± 1.4	14.93 ± 0.77	8.012 ± 0.41	4.62 ± 0.23	2.747 ± 0.14
313.15 K	123.8 ± 6.8	77.19 ± 4.1	47.61 ± 2.5	28.9 ± 1.5	16.82 ± 0.87	10.34 ± 0.53	5.907 ± 0.3	3.554 ± 0.18	1.892 ± 0.097
323.15 K	56.97 ± 3.1	40.67 ± 2.2	29.54 ± 1.6	18.75 ± 0.97	11.33 ± 0.58	7.604 ± 0.39	4.552 ± 0.23	2.766 ± 0.14	1.497 ± 0.076

CCOC(=O)OCC + CCCCCCO
101 kPa
Settings	viscosity [mPa·s]
293.15 K, x1 = 0.0551	4.432
293.15 K, x1 = 0.1001	3.822
293.15 K, x1 = 0.2106	2.778
293.15 K, x1 = 0.3101	2.17
293.15 K, x1 = 0.4052	1.77
293.15 K, x1 = 0.5061	1.454
293.15 K, x1 = 0.6093	1.229
293.15 K, x1 = 0.7555	0.999
293.15 K, x1 = 0.7968	0.958
293.15 K, x1 = 0.8927	0.868
293.15 K, x1 = 0.9522	0.826
303.15 K, x1 = 0.05134	3.305
303.15 K, x1 = 0.1004	2.818
303.15 K, x1 = 0.2102	2.088
303.15 K, x1 = 0.3094	1.667
303.15 K, x1 = 0.4091	1.367
303.15 K, x1 = 0.5094	1.145
303.15 K, x1 = 0.6017	0.998
303.15 K, x1 = 0.7089	0.873
303.15 K, x1 = 0.8045	0.795
303.15 K, x1 = 0.9051	0.734
303.15 K, x1 = 0.9543	0.715
313.15 K, x1 = 0.06803	2.378
313.15 K, x1 = 0.222	1.602
313.15 K, x1 = 0.3216	1.303
313.15 K, x1 = 0.4055	1.125
313.15 K, x1 = 0.5084	0.954
313.15 K, x1 = 0.6037	0.839
313.15 K, x1 = 0.7059	0.748
313.15 K, x1 = 0.8097	0.682
313.15 K, x1 = 0.9065	0.642
313.15 K, x1 = 0.957	0.625

CCCCCCCCCCO + CCC(C)=O
viscosity [mPa·s], 100 kPa
Settings	x2 = 0.0798	x2 = 0.1601	x2 = 0.2392	x2 = 0.3498	x2 = 0.4401	x2 = 0.5602	x2 = 0.6496	x2 = 0.7411	x2 = 0.8502	x2 = 0.9406
293.15 K	11.4 ± 1.1	8.94 ± 0.9	7.3 ± 0.73	5.65 ± 0.57	4.57 ± 0.46	3.24 ± 0.33	2.34 ± 0.24	1.68 ± 0.17	1.01 ± 0.1	0.6 ± 0.06
303.15 K	7.99 ± 0.8	6.34 ± 0.64	4.92 ± 0.49	3.65 ± 0.37	2.75 ± 0.28	2 ± 0.2	1.52 ± 0.15	1.11 ± 0.11	0.74 ± 0.07	0.49 ± 0.05
313.15 K	5.31 ± 0.53	4.24 ± 0.43	3.39 ± 0.34	2.42 ± 0.24	1.88 ± 0.19	1.39 ± 0.14	1.1 ± 0.11	0.82 ± 0.08	0.58 ± 0.06	0.4 ± 0.04
323.15 K	3.95 ± 0.4	3.23 ± 0.32	2.64 ± 0.26	1.93 ± 0.19	1.52 ± 0.15	1.13 ± 0.11	0.87 ± 0.09	0.66 ± 0.07	0.48 ± 0.05	0.36 ± 0.04

CCOC(=O)OCC + CC(C)OC(C)C
viscosity [mPa·s], 100 kPa
Settings	x1 = 0.0986	x1 = 0.1988	x1 = 0.3012	x1 = 0.4026	x1 = 0.4998	x1 = 0.5976	x1 = 0.7008	x1 = 0.8014	x1 = 0.9009
303.15 K	0.325 ± 0.007	0.351 ± 0.008	0.379 ± 0.008	0.409 ± 0.009	0.442 ± 0.01	0.481 ± 0.01	0.528 ± 0.011	0.58 ± 0.012	0.636 ± 0.013
308.15 K	0.309 ± 0.007	0.332 ± 0.007	0.359 ± 0.008	0.387 ± 0.008	0.419 ± 0.009	0.455 ± 0.01	0.497 ± 0.011	0.546 ± 0.012	0.599 ± 0.013
313.15 K	0.296 ± 0.007	0.317 ± 0.007	0.341 ± 0.008	0.369 ± 0.008	0.398 ± 0.009	0.432 ± 0.009	0.472 ± 0.01	0.516 ± 0.011	0.566 ± 0.012

CC(C)[C@@H]1CC[C@@H](C)C[C@H]1O + CC(=O)O
100 kPa, x1 = 0.5
Settings	viscosity [mPa·s]
293.15 K	11.3 ± 0.17
298.15 K	8.691 ± 0.13
303.15 K	6.904 ± 0.11
308.15 K	5.59 ± 0.086
313.15 K	4.564 ± 0.071
318.15 K	3.843 ± 0.06
323.15 K	3.251 ± 0.051

Nc1ccc(S(N)(=O)=O)cc1 + O
viscosity [mPa·s], 101 kPa
Settings	x1 = 0.0001938	x1 = 0.000331	x1 = 0.0004378	x1 = 0.0004556	x1 = 0.000456	x1 = 0.0005923	x1 = 0.0007136
298.15 K	0.8931 ± 0.0056	0.895 ± 0.0056	0.8965 ± 0.0057	0.897 ± 0.0057	–	0.899 ± 0.0057	0.9008 ± 0.0057
308.15 K	0.7207 ± 0.0047	0.7224 ± 0.0047	0.7234 ± 0.0048	0.724 ± 0.0048	–	0.7254 ± 0.0048	–
318.15 K	0.5965 ± 0.0042	0.5979 ± 0.0042	0.5992 ± 0.0042	–	0.5993 ± 0.0042	0.6007 ± 0.0042	0.6015 ± 0.0042

c1ccc(Oc2ccccc2)cc1 + ClC(Cl)Cl
298.15 K, 101 kPa
Settings	viscosity [mPa·s]
x1 = 0.3136	2.22 ± 0.059
x1 = 0.5696	1.39 ± 0.037
x1 = 0.817	0.83 ± 0.022

OCCOCCOCCO + C[N+](C)(C)CCO.[Cl-]
Settings	viscosity [mPa·s]
298.15 K, 101 kPa, x2 = 0.25	72.3 ± 2.9
